In the supplement of paper PMC11208160:

Test: recombinant barcode read abundance after kanamycin selection (control-corrected) (log10(CPM+1)); higher = more efficient recombination; sequences stand for … in AGTGCAGAGAAAATCGGCCAGTTTTCTCTGCCTGCAGTCCGCATGCCGT…AGATTTATGCAGCGGACTGCCTTTCTCCCAAAGTGATAAACCGGACAGTATCATGGACCGGTTTTCCCGGTAATCCGTATTTGCAAGGTTGGTTTCACT; site = the 11-nt target
In short: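 The screen was pooled in E. coli and paired targets with IS621 bridge RNA target-binding loops. Recombination efficiency is taken from barcode counts per million at recombinant junctions, averaged and adjusted against the control. Values, in the form log10(CPM+1), come from duplicate plating on chloramphenicol/ampicillin LB agar or on chloramphenicol/ampicillin/kanamycin with 0.1 mM IPTG.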
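Further: IS621 recombinase and bridge RNA in Escherichia coli cells.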

Sequence	recombinant barcode read abundance (log10)
TGTATCGCTTGGGTTCTAACCTGTTGCCT (site TGTCCCGCTAG)	0.149
TGTCAAACTTGGGTTCTAACCTGTTGCCT (site TGTCAAACTAG)	0.298
TGTCAAACTTGGGTTCTAACCTGTTGCCT (site TGTCAACCTAG)	0.176
TGTCAAACTTGGGTTCTAACCTGTTGCCT (site TGTCAAGCTAG)	0.145
TGTCAAACTTGGGTTCTAACCTGTTGCCT (site TGTCAATCTAG)	0.0654
TGTCAATCTTGGGTTCTAACCTGTTGCCT (site TGTCAAACTAG)	0.243
TGTCAATCTTGGGTTCTAACCTGTTGCCT (site TGTCAACCTAG)	0.061
TGTCAATCTTGGGTTCTAACCTGTTGCCT (site TGTCAAGCTAG)	0.0211
TGTCAATCTTGGGTTCTAACCTGTTGCCT (site TGTCAATCTAG)	0.0947
TGTCAATCTTGGGTTCTAACCTGTTGCGT (site TGTCAATCTAC)	0.543
TGTCAATCTTGGGTTCTAACCTGTTGCGT (site TGTCGATCTAG)	0.152
TGTCAGGCTTGGGTTCTAACCTGTTGCCT (site TGCTAGGCTAG)	0.187
TGTCAGGCTTGGGTTCTAACCTGTTGCCT (site TGTCAGGCTAG)	0.0749
TGTCGCACTTGGGTTCTAACCTGTTGCAG (site TGTAGCACTGT)	0.123
TGTCGCACTTGGGTTCTAACCTGTTGCAG (site TGTCGCACTCT)	0.313
TGTCTACCTTGGGTTCTAACCTGTTGCCT (site TGTCTACCTAG)	0.191
TGTCTACCTTGGGTTCTAACCTGTTGCCT (site TGTCTATCTAG)	0.653
TGTCTAGCTTGGGTTCTAACCTGTTGCCT (site TGACTAGCTAG)	0.486
TGTCTAGCTTGGGTTCTAACCTGTTGCCT (site TGCCTAGCTAG)	0.0303
TGTCTAGCTTGGGTTCTAACCTGTTGCCT (site TGGCTAGCTAG)	0.0711
TGTCTAGCTTGGGTTCTAACCTGTTGCCT (site TGTCTAGCTAG)	0.038
TGTCTCCCTTGGGTTCTAACCTGTTGCCG (site TGTCTCCCTCG)	0.261

Sequence	recombinant barcode read abundance (log10)
TGTCTCCCTTGGGTTCTAACCTGTTGCCG (site TGTGTCCCTCG)	0.108
TGTCTGCCTTGGGTTCTAACCTGTTGCCT (site AGTCTGCCTAG)	0.104
TGTCTGCCTTGGGTTCTAACCTGTTGCCT (site CGTCTGCCTAG)	0.122
TGTCTGCCTTGGGTTCTAACCTGTTGCCT (site GGTCTGCCTAG)	0.0534
TGTCTGCCTTGGGTTCTAACCTGTTGCCT (site TGTCTGCCTAG)	0.295
TGTGAGTCTTGGGTTCTAACCTGTTGCAT (site TGTGAGTCTAA)	0.107
TGTGAGTCTTGGGTTCTAACCTGTTGCAT (site TGTGAGTCTAC)	0.856
TGTGAGTCTTGGGTTCTAACCTGTTGCAT (site TGTGAGTCTAG)	0.149
TGTGAGTCTTGGGTTCTAACCTGTTGCAT (site TGTGAGTCTAT)	1.7
TGTGATCCTTGGGTTCTAACCTGTTGCAT (site TGAGATTCTAT)	0.0352
TGTGATCCTTGGGTTCTAACCTGTTGCAT (site TGTGATCCTAT)	1.4
TGTGCAACTTGGGTTCTAACCTGTTGCTG (site ATGCTTGCTTG)	0.353
TGTGCAACTTGGGTTCTAACCTGTTGCTG (site TGTGCAACTCA)	0.284
TGTGGAGCTTGGGTTCTAACCTGTTGCCG (site TGTAGAGCTCG)	0.448
TGTGGAGCTTGGGTTCTAACCTGTTGCCG (site TGTCGAGCTCG)	0.469
TGTGGAGCTTGGGTTCTAACCTGTTGCCG (site TGTGGAGCTCG)	1.24
TGTGGAGCTTGGGTTCTAACCTGTTGCCG (site TGTTGAGCTCG)	0.00933
TGTGTCCCTTGGGTTCTAACCTGTTGCCT (site TGAGTCCCTAG)	0.159
TGTGTCCCTTGGGTTCTAACCTGTTGCCT (site TGCGTCCCTAG)	0.139
TGTGTCCCTTGGGTTCTAACCTGTTGCCT (site TGGGTCCCTAG)	0.123
TGTGTCCCTTGGGTTCTAACCTGTTGCCT (site TGTGTCCCTAG)	1.14
TGTTAGTCTTGGGTTCTAACCTGTTGCCG (site TGTTAGACTAG)	0.0136

Sequence	recombinant barcode read abundance (log10)
TGTTAGTCTTGGGTTCTAACCTGTTGCCG (site TGTTAGTCTCG)	0.0597
TGTTCAGCTTGGGTTCTAACCTGTTGCCT (site CACAGGCCTCT)	0.0146
TGTTCAGCTTGGGTTCTAACCTGTTGCCT (site TGTTCAGCTAG)	0.066
TGTTCTACTTGGGTTCTAACCTGTTGCTT (site TGATCTACTAA)	0.0326
TGTTCTACTTGGGTTCTAACCTGTTGCTT (site TGCTCTACTAA)	0.246
TGTTCTACTTGGGTTCTAACCTGTTGCTT (site TGGTCTACTAA)	0.0191
TGTTCTACTTGGGTTCTAACCTGTTGCTT (site TGTTCTACTAA)	0.0296
TGTTGAGCTTGGGTTCTAACCTGTTGCAG (site TGTAGAGCTCT)	0.148
TGTTGAGCTTGGGTTCTAACCTGTTGCAG (site TGTTGAGCTCT)	0.468
TGTTGGACTTGGGTTCTAACCTGTTGCTT (site TCTTAGACTAA)	0.0262
TGTTGGACTTGGGTTCTAACCTGTTGCTT (site TGTTGGACTAA)	0.16
TGTTGGTCTTGGGTTCTAACCTGTTGCTT (site GAACTCCCTCC)	0.0579
TGTTGGTCTTGGGTTCTAACCTGTTGCTT (site TGTTGGTCTAA)	0.0212
TGTTGTCCTTGGGTTCTAACCTGTTGCTG (site AACATAACTAC)	0.141
TGTTGTCCTTGGGTTCTAACCTGTTGCTG (site TGTTGTCCTCA)	0.0482
TGTTGTGCTTGGGTTCTAACCTGTTGCCT (site TGGCGTGCTAG)	0.101
TGTTGTGCTTGGGTTCTAACCTGTTGCCT (site TGTTGTGCTAG)	0.109
TTAAATCCTTGGGTTCTAACCTGTTGCCT (site ATAAATCCTAG)	0.143
TTAAATCCTTGGGTTCTAACCTGTTGCCT (site CTAAATCCTAG)	0.183
TTAAATCCTTGGGTTCTAACCTGTTGCCT (site GTAAATCCTAG)	0.249
TTAAATCCTTGGGTTCTAACCTGTTGCCT (site TTAAATCCTAG)	0.219
TTAACGGCTTGGGTTCTAACCTGTTGCCT (site TTAACGGCTAG)	0.556

Sequence	recombinant barcode read abundance (log10)
TTAACGGCTTGGGTTCTAACCTGTTGCCT (site TTCACGGCTAG)	0.186
TTACAGGCTTGGGTTCTAACCTGTTGCCG (site GGCATCCCTTA)	0.0374
TTACAGGCTTGGGTTCTAACCTGTTGCCG (site TTACAGGCTCG)	1.13
TTACCAACTTGGGTTCTAACCTGTTGCCT (site TTACCAACTAG)	1.61
TTACCAACTTGGGTTCTAACCTGTTGCCT (site TTACCCACTAG)	0.629
TTACCAACTTGGGTTCTAACCTGTTGCCT (site TTACCGACTAG)	0.0912
TTACCAACTTGGGTTCTAACCTGTTGCCT (site TTACCTACTAG)	0.12
TTACCGACTTGGGTTCTAACCTGTTGCCT (site TTACCAACTAG)	1.23
TTACCGACTTGGGTTCTAACCTGTTGCCT (site TTACCCACTAG)	0.242
TTACCGACTTGGGTTCTAACCTGTTGCCT (site TTACCGACTAG)	2.33
TTACCGACTTGGGTTCTAACCTGTTGCCT (site TTACCTACTAG)	0.0567
TTACGTCCTTGGGTTCTAACCTGTTGCGG (site TCACGTCCTCC)	1.31
TTACGTCCTTGGGTTCTAACCTGTTGCGG (site TTACGTCCTCC)	1.74
TTAGACCCTTGGGTTCTAACCTGTTGCAG (site AGGTCTACTTG)	0.0942
TTAGACCCTTGGGTTCTAACCTGTTGCAG (site TTAGACCCTCT)	3.46
TTAGACCCTTGGGTTCTAACCTGTTGCCT (site ATAGACCCTAG)	1.3
TTAGACCCTTGGGTTCTAACCTGTTGCCT (site CTAGACCCTAG)	1.11
TTAGACCCTTGGGTTCTAACCTGTTGCCT (site GTAGACCCTAG)	0.341
TTAGACCCTTGGGTTCTAACCTGTTGCCT (site TTAGACCCTAG)	2.99
TTAGACTCTTGGGTTCTAACCTGTTGCCT (site TTAGACTCTAG)	2.48
